Where “and” joins values, the source holds several entries; their conditions need not be identical. Equal values may be shown once.

This assay has as its system 648629-189-R-J1-PDC complex spheroids viability. Kind of assay: Anticancer human tumor 648629-189-R-J1-PDC patient-derived bladder carcinoma cell line growth inhibition [CLK]. As to conditions: for viability, T/C: stronger effect = lower value. Put shortly: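 Multi-cell-type spheroids combined patient-derived tumor cells with HUVEC endothelial cells and human mesenchymal stem cells. Paired agents were dosed in half-log steps down from about clinical Cmax, or from 10 microM where Cmax was unknown.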

[1] abbreviates: curve of first compound, second compound 0.0316 µM.
Where [2] appears, read: curve of first compound, second compound 0.1 µM.
[3] abbreviates: curve of first compound, second compound 0.316 µM.
Setting [4] is: curve of first compound, second compound 1 µM.
Where [5] appears, read: curve of first compound, second compound 3.16 µM.
The mark [6] stands for this setting: curve of first compound, second compound 10 µM.
Where [7] appears, read: second compound 0.0316 µM, first compound 0.0316 µM.
Where [8] appears, read: second compound 0.0316 µM, first compound 0.1 µM.
[9] abbreviates: second compound 0.0316 µM, first compound 0.316 µM.
Where [10] appears, read: second compound 0.0316 µM, first compound 1 µM.
Setting [11] is: second compound 0.0316 µM, first compound 3.16 µM.
Setting [12] is: second compound 0.0316 µM, first compound 10 µM.
[13] abbreviates: second compound 0.1 µM, first compound 0.0316 µM.
Setting [14] is: second compound 0.1 µM, first compound 0.1 µM.
The mark [15] stands for this setting: second compound 0.1 µM, first compound 0.316 µM.
The mark [16] stands for this setting: second compound 0.1 µM, first compound 1 µM.
Setting [17] is: second compound 0.1 µM, first compound 3.16 µM.
Where [18] appears, read: second compound 0.1 µM, first compound 10 µM.
[19] abbreviates: second compound 0.316 µM, first compound 0.0316 µM.
[20] abbreviates: second compound 0.316 µM, first compound 0.1 µM.
Setting [21] is: second compound 0.316 µM, first compound 0.316 µM.
[22] abbreviates: second compound 0.316 µM, first compound 1 µM.
Setting [23] is: second compound 0.316 µM, first compound 3.16 µM.
[24] abbreviates: second compound 0.316 µM, first compound 10 µM.
[25] abbreviates: second compound 1 µM, first compound 0.0316 µM.
[26] abbreviates: second compound 1 µM, first compound 0.1 µM.
Setting [27] is: second compound 1 µM, first compound 0.316 µM.
[28] abbreviates: second compound 1 µM, first compound 1 µM.
Setting [29] is: second compound 1 µM, first compound 3.16 µM.
[30] abbreviates: second compound 1 µM, first compound 10 µM.
The mark [31] stands for this setting: second compound 3.16 µM, first compound 0.0316 µM.
[32] abbreviates: second compound 3.16 µM, first compound 0.1 µM.
Setting [33] is: second compound 3.16 µM, first compound 0.316 µM.
Setting [34] is: second compound 3.16 µM, first compound 1 µM.
The mark [35] stands for this setting: second compound 3.16 µM, first compound 3.16 µM.
[36] abbreviates: second compound 3.16 µM, first compound 10 µM.
Where [37] appears, read: second compound 10 µM, first compound 0.0316 µM.
The mark [38] stands for this setting: second compound 10 µM, first compound 0.1 µM.
The mark [39] stands for this setting: second compound 10 µM, first compound 0.316 µM.
Where [40] appears, read: second compound 10 µM, first compound 1 µM.
The mark [41] stands for this setting: second compound 10 µM, first compound 3.16 µM.
The mark [42] stands for this setting: second compound 10 µM, first compound 10 µM.
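Throughout, for viability, T/C: drug exposure lasted seven days before viability readout; 100% = DMSO vehicle control wells.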

For `COc1ccc([C@@H](O)c2cc(-c3ncnc4cc(N5CCOCC5)ccc34)c(F)cc2Cl)nn1` + CNC(=O)c1ccc(Nc2nc(OC3CCCC3)c3c(-c4ccc5nc(C)oc5c4)c[nH]c3n2)c(OC)c1, the IC50 (as a rule, the concentration that gives 50% inhibition) runs as follows: under setting [1], 9760 nM; under setting [2], 7740 nM; under setting [3], < 31.6 nM; under setting [4], < 31.6 nM; under setting [5], < 31.6 nM; under setting [6], < 31.6 nM. In addition, the viability, T/C – broadly, the ratio of treated to control – by setting is: under setting [7], 105%; under setting [8], 93%; under setting [9], 97%; under setting [10], 85.3%; under setting [11], 67.4%; under setting [12], 49.7%. Further, the viability, T/C runs as follows: under setting [13], 90.6%; under setting [14], 89.3%; under setting [15], 83.7%; under setting [16], 82%; under setting [17], 60.5%; under setting [18], 47%. In addition, the viability, T/C is 30.8% under setting [19]; 27% under setting [20]; 26.8% under setting [21]; 24.6% under setting [22]; 22.4% under setting [23]; 24.2% under setting [24]. The viability, T/C is 20.2% under setting [25]; 22.2% under setting [26]; 20.5% under setting [27]; 17.5% under setting [28]; 22.4% under setting [29]; 16% under setting [30]. The viability, T/C is 21.3% under setting [31]; 20.5% under setting [32]; 20.4% under setting [33]; 15% under setting [34]; 19.2% under setting [35]; 18.1% under setting [36]. Further, the viability, T/C runs as follows: under setting [37], 19.6%; under setting [38], 17.1%; under setting [39], 21.7%; under setting [40], 20.1%; under setting [41], 19.1%; under setting [42], 15.7%.
As for `CCN1CCN(Cc2ccc(Nc3ncc(F)c(-c4cc(F)c5nc(C)n(C(C)C)c5c4)n3)nc2)CC1`, the viability, T/C was 104% and 106% (compound 0.00316 µM); 99.1% and 94.2% (compound 0.01 µM); 102% (compound 0.0316 µM); 101% and 93.4% (compound 0.1 µM); 122% and 121% (compound 0.316 µM); 124% and 117% (compound 1 µM). Moreover, the IC50 (curve of compound) was > 1000 nM.
Regarding `CC(Nc1ccc2c(c1)OCCn1cc(N3C(=O)OCC3C(F)F)nc1-2)C(N)=O` (configuration not stated), the viability, T/C (compound 0.0316 µM) is 106% and 92.8%; the viability, T/C (compound 0.1 µM) is 99.8% and 111%; the viability, T/C (compound 0.316 µM) is 89% and 83.4%; the viability, T/C (compound 1 µM) is 82.8% and 76.1%; the viability, T/C (compound 3.16 µM) is 54.4% and 56.5%; the viability, T/C (compound 10 µM) was 38.2% and 46.5%. In addition, where the note is “curve of compound”, the IC50 is 4860 nM and 6820 nM.
Turning to `COc1c(OCCCN2CCOCC2)ccc2c3n(c(=NC(=O)c4cnc(N)nc4)nc12)CCN3`, the viability, T/C (compound 0.00316 µM) was 115% and 94.4%; the viability, T/C (compound 0.01 µM) was 90.3% and 90.5%; the viability, T/C (compound 0.0316 µM) is 74.8% and 77.7%; the viability, T/C (compound 0.1 µM) was 46% and 41.9%; the viability, T/C (compound 0.316 µM) is 16.8% and 13.3%; the viability, T/C (compound 1 µM) is 7.93% and 6.55%. In addition, the IC50 (curve of compound) was 78.3 nM and 76.7 nM.
As to `CCc1c2c(nc3ccc(O)cc13)-c1cc3c(c(=O)n1C2)COC(=O)[C@]3(O)CC`, the viability, T/C is 43.1% and 28.1% (compound 0.00316 µM); 17.6% and 10.2% (compound 0.01 µM); 6.99% and 10.1% (compound 0.0316 µM); 5.22% and 6.99% (compound 0.1 µM); 4.52% and 6.06% (compound 0.316 µM); 3.5% and 4.41% (compound 1 µM). Further, the IC50 (curve of compound) is < 3.16 nM.
Consider `CC1COCCN1c1cc(C2(S(C)(=N)=O)CC2)nc(-c2ccnc3[nH]ccc23)n1` (configuration not stated) + CN1CCN(c2cc(C(=O)Nc3cc4cc(-c5cnn(C)c5)ccc4cn3)ccn2)CC1, for which the IC50 under setting [1] worked out at 4570 nM; the IC50 under setting [2] is 3950 nM; the half-inhibitory concentration (IC50) under setting [3] is < 31.6 nM; the IC50 under setting [4] was < 31.6 nM; the half-inhibitory concentration (IC50) under setting [5] is < 31.6 nM; the IC50 under setting [6] is < 31.6 nM. Moreover, the viability, T/C is 115% under setting [7]; 116% under setting [8]; 103% under setting [9]; 97.1% under setting [10]; 59.5% under setting [11]; 27.5% under setting [12]. The viability, T/C by setting is: under setting [13], 109%; under setting [14], 95.4%; under setting [15], 96.8%; under setting [16], 83%; under setting [17], 54.3%; under setting [18], 26.5%. For the same molecule, the viability, T/C is 33.3% under setting [19]; 45.9% under setting [20]; 39.8% under setting [21]; 34.8% under setting [22]; 19.1% under setting [23]; 9.89% under setting [24]. The viability, T/C is, setting by setting: under setting [25], 0.39%; under setting [26], 0.82%; under setting [27], 0.84%; under setting [28], 0.41%; under setting [29], 0.31%; under setting [30], 0.11%. The viability, T/C was 1.1% under setting [31]; 0.7% under setting [32]; 0.19% under setting [33]; 0.15% under setting [34]; 0.15% under setting [35]; 1.68% under setting [36]. Besides, the viability, T/C is, setting by setting: under setting [37], 0.16%; under setting [38], 0.16%; under setting [39], 0.22%; under setting [40], 0.22%; under setting [41], 0.22%; under setting [42], 0.19%.

The record behind these values is PubChem BioAssay AID2060602 (Molecular Pharmacology Branch, DTP, NCI, 2025).
